Test results from patent US11180452B2, “Methods and compositions for selectively inhibiting pathogenic microbes” (priority 2019, dated 2021).
In brackets after ≈: the same amount, converted by molar mass. Read-outs that look alike come from different tables or passages of the source.

Columns and labels:
[1] = system: Burkholderia thailandensis Brett et al ATCC: 700388; test: microbe, parasite or virus in culture; assay type: cell-based
C. albicans = test: Candida albicans MIC / MFC; assay type: cell-based
Candida glabrata = Candida glabrata MIC / MFC; assay type: cell-based; conditions: Nakaseomyces glabratus; for MFC: read-out: MFC; for MIC: read-out: MIC
[2] = system: Francisella tularensis subsp. Holarctica Strain LVSR NR-597; test: microbe, parasite or virus in culture; assay type: cell-based
Roseomonas mucosa (RM) = test: MIC against skin commensal Roseomonas mucosa; assay type: cell-based; conditions: read-out: Skin Commensals MIC Roseomonas mucosa (RM)
HepG2 cells = test: SYTOX assay on HepG2 cells; assay type: cell-based; conditions: staining in treated cells
[3] = system: Staphylococcus epidermidis (SE); test: MIC against skin commensal Staphylococcus epidermidis; assay type: cell-based; conditions: read-out: Skin Commensals MIC Staphylococcus epidermidis (SE)
[4] = system: Francisella tularensis strains; test: microbe, parasite or virus in culture; assay type: cell-based
[5] = HepaRG cytotoxicity, MTT assay EC50; assay type: cell-based, human; conditions: human, NoSpin HepaRG cells
NoSpin HepaRG cells = test: HepaRG cytotoxicity, MTT assay EC50; assay type: cell-based, human; conditions: Homo sapiens, HepaRG; cytotoxicity EC50, Table 9
[6] = MIC with and without 2-ketobutyrate (synergy); assay type: cell-based
Bacillus subtilis = Bacillus subtilis MIC / MBC; assay type: cell-based; conditions: for MBC: Bacillus subtilis NRRL: B-571, minimum bactericidal concentration; for MIC: Bacillus subtilis
Bacillus thuringiensis = assay type: cell-based; conditions: for MIC: Bacillus thuringiensis
N. gonorrhoeae = N. gonorrhoeae MIC; assay type: cell-based; conditions: Neisseria gonorrhoeae
Trichophyton rubrum = test: MIC against Trichophyton rubrum; assay type: cell-based
[7] = system: Staphylococcus aureus (SA); test: MIC against pathogen Staphylococcus aureus (Table 1); assay type: cell-based; conditions: read-out: Pathogens MIC Staphylococcus aureus (SA)
[8] = system: cell wall synthesis of S. aureus; test: Macromolecular synthesis assay, glucosamine incorporation into cell wall; assay type: cell-based; conditions: dose-response, FIG. 2A-2B
[9] = C. albicans strain #761, read-out: MFC
[10] = C. albicans strain #761, read-out: MIC
[11] = C. albicans strain #762, read-out: MFC
[12] = C. albicans strain #762, read-out: MIC
[13] = C. glabrata strain #584 (Table 7)
[14] = Candida glabrata #584 (Table 2)
[15] = read-out: F. tularensis BSL-3 MIC, Strain 100
[16] = read-out: F. tularensis BSL-3 MIC, strain HN-63
[17] = read-out: F. tularensis BSL-3 MIC, strain LVS
[18] = read-out: F. tularensis BSL-3 MIC, strain MA00-2987
[19] = read-out: F. tularensis BSL-3 MIC, strain MO #1
[20] = read-out: F. tularensis BSL-3 MIC, strain MO #2
[21] = read-out: F. tularensis BSL-3 MIC, strain MO #3
[22] = read-out: F. tularensis BSL-3 MIC, strain OR-96
[23] = read-out: F. tularensis BSL-3 MIC, strain SCHU S4
[24] = read-out: F. tularensis BSL-3 MIC, strain WY-96
[25] = read-out: MAX, highest MIC over the Francisella tularensis strains
[26] = read-out: MIN, lowest MIC over the Francisella tularensis strains
[27] = Bacillus subtilis (Ehrenberg 1835) Cohn 1872 NRRL: B-571, read-out: MIC
[28] = strain B-571 (Table 4), read-out: Bacillus subtilis MIC
[29] = strain B-1985, read-out: Bacillus subtilis MIC
[30] = strain B-3665, read-out: Bacillus subtilis MIC
[31] = strain B-14322, read-out: Bacillus subtilis MIC
[32] = strain B-41090, read-out: Bacillus subtilis MIC
[33] = strain BD-594, read-out: Bacillus subtilis MIC
[34] = Bacillus thuringiensis Berliner ATCC: 10792
[35] = Bacillus thuringiensis Berliner ATCC: 10792, read-out: MIC
[36] = Trichophyton rubrum Castellani Sabouraud ATCC: 28188, read-out: MIC
[37] = Candida glabrata #584 (Table 2), minimum fungicidal concentration

Nc1ccccc1Sc1c[nH]c2ccc(Br)cc12 [Compound 174M, 2-((5-bromo-1H-indol-3-yl)thio)aniline]
MBC [1]: > 150 µg/mL | MIC [1]: 150 µg/mL (≈ 470 µM) | MFC (C. albicans; [9]): 25 µg/mL (≈ 78.3 µM) | MIC (C. albicans; [10]): 12.5 µg/mL (≈ 39.2 µM) | MFC (C. albicans; [11]): 25 µg/mL (≈ 78.3 µM) | MIC (C. albicans; [12]): 3.13 µg/mL (≈ 9.8 µM) | MFC (Candida glabrata; C. glabrata strain #325): > 50 µg/mL | MIC (Candida glabrata; C. glabrata strain #325): 25 µg/mL (≈ 78.3 µM) | MIC (Candida glabrata; [13]): 12.5 µg/mL (≈ 39.2 µM) | MIC (Candida glabrata; [14]): 12.5 µg/mL (≈ 39.2 µM) | MIC [2]: 2.5 µg/mL (≈ 7.83 µM) | MIC (Roseomonas mucosa (RM)): > 50 µg/mL | cell membrane damage of HepG2 cells (HepG2 cells): no cell membrane damage | MIC [3]: 16 µg/mL (≈ 50.1 µM) | MIC50 [4]: 4 µg/mL (≈ 12.5 µM) | MIC [4, 15]: > 8 µg/mL | MIC [4, 16]: 4 µg/mL (≈ 12.5 µM) | MIC [4, 17]: 2 µg/mL (≈ 6.27 µM) | MIC [4, 18]: 2 µg/mL (≈ 6.27 µM) | MIC [4, 19]: 2 µg/mL (≈ 6.27 µM) | MIC [4, 20]: 1.67 µg/mL (≈ 5.23 µM) | MIC [4, 21]: 4 µg/mL (≈ 12.5 µM) | MIC [4, 22]: 4 µg/mL (≈ 12.5 µM) | MIC [4, 23]: 8 µg/mL (≈ 25.1 µM) | MIC [4, 24]: 4 µg/mL (≈ 12.5 µM) | MIC [4, 25]: > 8 µg/mL | MIC [4, 26]: 1.67 µg/mL (≈ 5.23 µM) | EC50 at 48 h [5]: 85 µg/mL (≈ 266 µM) | EC50 (NoSpin HepaRG cells): 26.5 µg/mL (≈ 83 µM) | synergistic effect with 2-ketobutyrate [6]: synergistic effect | MIC ([6]; with 200 μg/mL 2-ketobutyrate): 0.781 µg/mL | MIC ([6]; with 800 μg/mL 2-ketobutyrate): less than 0.39 μg/mL | MIC ([6]; without ketobutyrate): 3.124 µg/mL | MBC (Bacillus subtilis): 10 µg/mL (≈ 31.3 µM) | MIC (Bacillus subtilis; [27]): 0.63 µg/mL (≈ 1.97 µM) | MIC (Bacillus subtilis; [28]): 0.625 µg/mL (≈ 1.96 µM) | MIC (Bacillus subtilis; [29]): 5 µg/mL (≈ 15.7 µM) | MIC (Bacillus subtilis; [30]): 10 µg/mL (≈ 31.3 µM) | MIC (Bacillus subtilis; [31]): 2.5 µg/mL (≈ 7.83 µM) | MIC (Bacillus subtilis; [32]): 5 µg/mL (≈ 15.7 µM) | MIC (Bacillus subtilis; strain B-41581, read-out: Bacillus subtilis MIC): 5 µg/mL (≈ 15.7 µM) | MIC (Bacillus subtilis; [33]): 5 µg/mL (≈ 15.7 µM) | MBC (Bacillus thuringiensis; [34]): 5 µg/mL (≈ 15.7 µM) | MIC (Bacillus thuringiensis; ATCC10792, […]): 0.625 µg/mL (≈ 1.96 µM) | MIC (Bacillus thuringiensis; [35]): 1.25 µg/mL (≈ 3.92 µM) | MIC (Bacillus thuringiensis; strain B-1596): 1.25 µg/mL (≈ 3.92 µM) | MIC (N. gonorrhoeae; strain #167): 1.56 µg/mL (≈ 4.89 µM) | MIC (Trichophyton rubrum; [36]): 0.99 µg/mL (≈ 3.1 µM) | MIC (Trichophyton rubrum; Trichophyton rubrum, read-out: Pathogens MIC Trichophyton rubrum (TR)): 0.9 µg/mL (≈ 2.82 µM) | MIC [7]: 2 µg/mL (≈ 6.27 µM)

CN[C@H](CC(C)C)C(=O)N[C@H]1C(=O)N[C@@H](CC(N)=O)C(=O)N[C@H]2C(=O)N[C@H]3C(=O)N[C@H](C(=O)N[C@H](C(=O)O)c4cc(O)cc(O)c4-c4cc3ccc4O)[C@H](O)c3ccc(c(Cl)c3)Oc3cc2cc(c3O[C@@H]2O[C@H](CO)[C@@H](O)[C@H](O)[C@H]2O[C@H]2C[C@](C)(N)[C@H](O)[C@H](C)O2)Oc2ccc(cc2Cl)[C@H]1O [vancomycin, reference compound]
cell wall synthesis inhibition (glucosamine incorporation) [8]: increasingly inhibits glucosamine from incorporating into a cell wall

Brc1cccc(Sc2c[nH]c3ccc(Br)cc23)c1 [Compound 174N, 5-bromo-3-((3-bromophenyl)thio)-1H-indole]
MBC [1]: > 150 µg/mL | MIC [1]: 50 µg/mL (≈ 131 µM) | MFC (C. albicans; [9]): > 50 µg/mL | MIC (C. albicans; [10]): 12.5 µg/mL (≈ 32.6 µM) | MFC (C. albicans; [11]): 6.25 µg/mL (≈ 16.3 µM) | MIC (C. albicans; [12]): 3.13 µg/mL (≈ 8.17 µM) | MIC (Candida glabrata; C. glabrata strain #325): > 50 µg/mL | MFC (Candida glabrata; [13]): 50 µg/mL (≈ 131 µM) | MFC (Candida glabrata; [37]): 50 µg/mL (≈ 131 µM) | MIC [2]: 1.25 µg/mL (≈ 3.26 µM) | MIC50 [4]: 4 µg/mL (≈ 10.4 µM) | MIC [4, 15]: 8 µg/mL (≈ 20.9 µM) | MIC [4, 16]: 4 µg/mL (≈ 10.4 µM) | MIC [4, 17]: 6.67 µg/mL (≈ 17.4 µM) | MIC [4, 18]: 6.67 µg/mL (≈ 17.4 µM) | MIC [4, 19]: 3.33 µg/mL (≈ 8.69 µM) | MIC [4, 20]: 3.67 µg/mL (≈ 9.58 µM) | MIC [4, 21]: 4 µg/mL (≈ 10.4 µM) | MIC [4, 22]: 4 µg/mL (≈ 10.4 µM) | MIC [4, 23]: > 8 µg/mL | MIC [4, 24]: 4 µg/mL (≈ 10.4 µM) | MIC [4, 25]: > 8 µg/mL | MIC [4, 26]: 3.33 µg/mL (≈ 8.69 µM) | EC50 (NoSpin HepaRG cells): 29.5 µg/mL (≈ 77 µM) | MBC (Bacillus subtilis): 10 µg/mL (≈ 26.1 µM) | MIC (Bacillus subtilis; [27]): 1.25 µg/mL (≈ 3.26 µM) | MIC (Bacillus subtilis; [28]): 1.25 µg/mL (≈ 3.26 µM) | MIC (Bacillus subtilis; [29]): 1.25 µg/mL (≈ 3.26 µM) | MIC (Bacillus subtilis; [30]): 1.25 µg/mL (≈ 3.26 µM) | MIC (Bacillus subtilis; [31]): 1.25 µg/mL (≈ 3.26 µM) | MIC (Bacillus subtilis; [32]): 2.5 µg/mL (≈ 6.53 µM) | MIC (Bacillus subtilis; [33]): 2.5 µg/mL (≈ 6.53 µM) | MBC (Bacillus thuringiensis; [34]): 10 µg/mL (≈ 26.1 µM) | MIC (Bacillus thuringiensis; ATCC10792, […]): 1.25 µg/mL (≈ 3.26 µM) | MIC (Bacillus thuringiensis; [35]): 1.25 µg/mL (≈ 3.26 µM) | MIC (Bacillus thuringiensis; strain B-1596): 2.5 µg/mL (≈ 6.53 µM) | MIC (N. gonorrhoeae; strain #167): 1.56 µg/mL (≈ 4.07 µM) | MIC (Trichophyton rubrum; [36]): < 0.57 µg/mL

COc1ccc2[nH]cc(Sc3ccc(Br)cc3)c2c1 [Compound 172E, 3-((4-bromophenyl)thio)-5-methoxy-1H-indole]
MIC [1]: > 50 µg/mL | MFC (Candida glabrata; [37]): > 50 µg/mL | MIC (Candida glabrata; [14]): 6.25 µg/mL (≈ 18.7 µM) | MIC [2]: 0.78 µg/mL (≈ 2.33 µM) | MIC50 [4]: 8 µg/mL (≈ 23.9 µM) | MIC [4, 15]: > 8 µg/mL | MIC [4, 16]: 8 µg/mL (≈ 23.9 µM) | MIC [4, 17]: > 8 µg/mL | MIC [4, 18]: 8 µg/mL (≈ 23.9 µM) | MIC [4, 19]: 5.33 µg/mL (≈ 15.9 µM) | MIC [4, 20]: 3.33 µg/mL (≈ 9.96 µM) | MIC [4, 21]: 8 µg/mL (≈ 23.9 µM) | MIC [4, 22]: 8 µg/mL (≈ 23.9 µM) | MIC [4, 23]: 4 µg/mL (≈ 12 µM) | MIC [4, 24]: > 8 µg/mL | MIC [4, 25]: > 8 µg/mL | MIC [4, 26]: 3.33 µg/mL (≈ 9.96 µM) | EC50 (NoSpin HepaRG cells): 23.3 µg/mL (≈ 69.7 µM) | MBC (Bacillus subtilis): 6.25 µg/mL (≈ 18.7 µM) | MIC (Bacillus subtilis; [27]): 1.56 µg/mL (≈ 4.67 µM) | MBC (Bacillus thuringiensis; [34]): 12.5 µg/mL (≈ 37.4 µM) | MIC (Bacillus thuringiensis; [35]): 1.56 µg/mL (≈ 4.67 µM) | MIC (N. gonorrhoeae; strain #167): < 0.39 µg/mL | MIC (N. gonorrhoeae; strain #203): 3.13 µg/mL (≈ 9.36 µM) | MIC (N. gonorrhoeae; strain #205): 3.13 µg/mL (≈ 9.36 µM) | MIC (Trichophyton rubrum; [36]): 2.08 µg/mL (≈ 6.22 µM)
